Test results taken from patent US20140005160A1, “Method for Treating Refractory Cancer” (priority 2010, published 2014).
Read-outs that look alike come from different tables or passages of the source. Each block holds one compound with its values, some of them ahead of it.

How the values were obtained:
[1] = system: breast cancer cell line MCF-7; assay: ATCC MTT Cell Proliferation Assay, MCF-7; assay type: cell-based; settings: MCF-7, same manner as Example 2
[2] = system: human lung carcinoma cell line A549; assay: ATCC MTT Cell Proliferation Assay, A549; assay type: cell-based; settings: for IC50 Ratio (A549/H1975): Table 5, ratio of IC50 in A549 to H1975
[3] = system: breast cancer cell line MDA-MB-231; assay: ATCC MTT Cell Proliferation Assay, MDA-MB-231; assay type: cell-based; settings: for IC50: MDA-MB-231, same manner as Example 2 (Table 3); for IC50 Ratio (MDA-MB-231/MCF-7): ratio of IC50 in MDA-MB-231 to MCF-7
[4] = system: bcrp-overexpressing line MDA-MB-231/bcrp; settings: 72 hours, EZ4U MTT
Experimental: (§1) Breast cancer cell line MDA-MB-231 and its corresponding bcrp-overexpressing line MDA-MB-231/bcrp were plated (2×10^3 cells in 100 μl/well) in 96-well plates and allowed to recover for 24 hours. […] The proportion of viable cells was determined by MTT assay following the manufacturer's recommendations (EZ4U, Biomedica, Vienna, Austria), and IC50 values were calculated. […] BCRP-overexpression confers resistance to drugs such as irinotecan, topotecan, mitoxantrone, methotrexate, camptothecins, gefitinib and imatinib etc. See Fojo & Menefee, Ann. Oncol., 18 (Supplement 5):v3-v8 (2007).

[5] = system: breast cancer cell line MDA-MB-231; settings: MDA-MB-231, 72 hours, EZ4U MTT (Table 4)
Experimental: as §1

[6] = system: human melanoma cell line A375; assay: ATCC MTT Cell Proliferation Assay, A375
Experimental: (§6) Stock cultures were allowed to grow to 70-80% confluence for this study. […] ZR-75-1 plates were seeded with 3,000 cells/well, and the cells were grown in RPMI1640 medium containing 1% (1M HEPES), 1% sodium pyruvate, 1% (45% Glucose), 10% FBS and 1% penicillin/strep/glutamine. Cultures were maintained in a 37° C. humidified 5% CO2/95% air atmosphere. […] 100 μl of medium was removed from each well at 72 hours post-treatment and 10 μl MTT reagent was added to each well. The plates were incubated at 37° C. for 4 hours and then 100 μl of detergent was added. The plates were left overnight at room temperature in the dark and was read on a plate reader using SoftMax® Pro (version 5.2, Molecular Devices).
(§7) The absorbance data was analyzed as follows: Absorbance values were converted to Percent of Control and plotted against test agent concentrations for IC50 calculations using SoftMax® Pro (version 5.2, Molecular Devices). […] Percent of Control values were calculated by dividing the absorbance values for each test well by the No Drug Control average (column 11 values; cells+vehicle control) and multiplying by 100. Plots of Compound Concentration versus Percent of Control were analyzed using the 4-parameter equation to obtain IC50 values and other parameters that describe the sigmoidal dose response curve. […]

[7] = system: human breast cancer cell line MX-1; assay: ATCC MTT Cell Proliferation Assay, MX-1; assay type: cell-based; settings: MX-1, 72 hours
Experimental: as §6, §7

[8] = system: human renal cell line A498; settings: A498, same manner as Example 2
Text: See e.g., Mahalingam et al., Clin. Cancer Res., 16(1):141-153 (2010).

[9] = system: human lung carcinoma cell line H1975; assay: ATCC MTT Cell Proliferation Assay, H1975; assay type: cell-based; settings: H1975 (KRAS wild type), same manner as Example 2
Text: (§2) Table 2 summarizes the results.

[10] = system: HCT-116 p53 (+/+); settings: Colon HCT-116 p53 (+/+), 72 hours exposure, MTT
Experimental: (§3) The colon carcinoma cell line HCT116 (HCT-116 p53 (+/+)) and the corresponding subline with deleted p53 genes (HCT-116 p53 (−/−)) were grown in McCoy's culture medium with 10% FCS. […] For cytotoxicity assays, cells were plated (2×10^3 cells in 100 μl/well) in 96-well plates and allowed to recover for 24 hours. […] The proportion of viable cells was determined by MTT assay following the manufacturer's recommendations (EZ4U, Biomedica, Vienna, Austria).

[11] = system: HCT-116 p53 (−/−); settings: Colon HCT-116 p53 (−/−), 72 hours exposure, MTT
Experimental: as §3

[12] = system: MVP- and MRP1-overexpressing subline SW-1573/2R120; settings: PGP/MRP-1-overexpressing cell line (SW-1573/2R120), 72 hours, EZ4U MTT
Experimental: (§4) The alveolar epithelial cell carcinoma cell line SW-1573 and its MVP- and MRP1-overexpressing subline SW-1573/2R120 were grown in DMEM medium supplemented with 10% fetal calf serum. See Elbling et al., Cytometry, 31:187-198 (1998). Cells were plated (2×10^3 cells in 100 μl/well) in 96-well plates and allowed to recover for 24 hours. […] The proportion of viable cells was determined by MTT assay following the manufacturer's recommendations (EZ4U, Biomedica, Vienna, Austria). […] PGP/MRP-1-overexpression confers resistance to drugs such as vincristine, vinblastine, vinorelbine, taxol, docetaxel, etoposide, mitoxantrone, doxorubincin, epirubicin, topotecan, irinotecan, methotrexate, and imatinib etc. See Fojo & Menefee, Ann. Oncol., 18 (Supplement 5):v3-v8 (2007).

[13] = system: alveolar epithelial cell carcinoma cell line SW-1573; settings: SW1573 cell line, 72 hours, EZ4U MTT
Experimental: as §4

[14] = system: human prostate cancer cell line LNCaP (prostate carcinoma); settings: same manner as Example 2
Text: (§5) In addition, the IC50 values of docetaxel in the LNCaP and PC-3 cell lines were obtained from published literature. […] See Domingo-Domenech et al., Clin. Cancer Res., 12(18):5578-5586 (2006); Blagosklonny et al., J. Urol., 163(3):1022-6 (2000).

[15] = system: human prostate cancer cell line PC-3 (prostate carcinoma)
Text: as §5

[16] = system: human breast carcinoma cell line ZR-75-1; assay: ATCC MTT Cell Proliferation Assay, ZR-75-1; assay type: cell-based; settings: for IC50: ZR-75-1, 72 hours, MTT; for IC50 Ratio (ZR-75-1/MX-1): ratio of IC50 in ZR-75-1 to MX-1
Experimental: as §6
The absorbance data was analyzed as follows: Absorbance values were converted to Percent of Control and plotted against test agent concentrations for IC50 calculations using SoftMax® Pro (version 5.2, Molecular Devices). The plate blank signal average was subtracted from all wells prior to calculating the Percent of Control. Percent of Control values were calculated by dividing the absorbance values for each test well by the No Drug Control average (column 11 values; cells+vehicle control) and multiplying by 100. Plots of Compound Concentration versus Percent of Control were analyzed using the 4-parameter equation to obtain IC50 values and other parameters that describe the sigmoidal dose response curve.
The IC50 value for the test agent was estimated by curve-fitting the data using the following four parameter-logistic equation:
wherein “Top” is the maximal % of control absorbance (100%), “Bottom” is the minimal % of control absorbance at the highest agent concentration (down to zero), Y is the Percent of Control absorbance, X is the test agent Concentration, IC50 is the concentration of agent that inhibits cell growth by 50% compared to the control cells, n is the slope of the curve.

[17] = system: human lung carcinoma cell line NCI-H322M; assay: ATCC MTT Cell Proliferation Assay, NCI-H322M; assay type: cell-based; settings: for IC50: NCI-H322M (KRAS wild type), same manner as Example 2
Text: as §2

[18] = system: LNCaP cell line; settings: from Domingo-Domenech et al. 2006; cited from earlier work
[19] = system: PC-3 cell line; assay: Published literature IC50 of docetaxel, PC-3; assay type: cell-based, human; settings: ratio from published literature IC50 values
[20] = system: PC-3 cell line; settings: PC-3, from Domingo-Domenech et al. 2006; cited from earlier work

SMILES: [Ga+3].[O-]c1cccc2cccnc12.[O-]c1cccc2cccnc12.[O-]c1cccc2cccnc12
- IC50 [1]: 1.23 µM
- IC50 ([2]; A549 (KRAS G12S), same manner as Example 2): 1110 nM
- IC50 Ratio (A549/H1975) [2]: 0.31
- IC50 [3]: 0.838 µM
- IC50 Ratio (MDA-MB-231/MCF-7) [3]: 0.681
- IC50 [4]: 1800 nM
- IC50 [5]: 1600 nM
- IC50 ([6]; A375, same manner as Example 2): 1.95 µM
- IC50 [7]: 2060 nM
- IC50 [8]: 32.9 µM
- IC50 [9]: 3.55 µM
- IC50 [10]: 1800 nM
- IC50 [11]: 1700 nM
- IC50 [12]: 2100 nM
- IC50 [13]: 1700 nM
- IC50 [14]: 2190 nM
- IC50 ([15]; PC-3, same manner as Example 2): 1790 nM
- IC50 Ratio (PC-3/LNCaP) ([15]; ratio of IC50 in PC-3 to LNCaP): 0.82
- IC50 [16]: 1.59 µM
- IC50 Ratio (ZR-75-1/MX-1) [16]: 0.77
- IC50 [17]: 4.95 µM
- IC50 Ratio (A549/H1975) ([17]; Table 6, Test Drug column, row NCI-H322M): 1.39

- IC50 ([7]; Homo sapiens): 1470 nM
- IC50 ([16]; Homo sapiens): 31.1 µM
- IC50 Ratio (ZR-75-1/MX-1) [16]: 21.2
SMILES: O=c1[nH]cc(F)c(=O)[nH]1 [5-FU, 5-fluorouracil, reference compound]

SMILES: N.N.[Cl][Pt][Cl] [Cisplatin, cisplatin, reference compound]
- IC50 [1]: 8.01 µM
- IC50 [3]: 47.1 µM
- IC50 Ratio (MDA-MB-231/MCF-7) [3]: 5.88
- IC50 [9]: 11.4 µM
- IC50 [17]: 52.3 µM
- IC50 Ratio (NCI-H322M/H1975) ([17]; Table 6, cisplatin column): 4.59

- IC50 Ratio (PC-3/LNCaP/) [19]: 12-20
SMILES: CC(=O)O[C@@]12CO[C@@H]1C[C@H](O)[C@@]1(C)C(=O)[C@H](O)C3=C(C)[C@@H](OC(=O)[C@H](O)[C@@H](NC(=O)OC(C)(C)C)c4ccccc4)C[C@@](O)([C@@H](OC(=O)c4ccccc4)[C@H]21)C3(C)C [Docetaxel, docetaxel]
- IC50 [18]: 2.5 to 5 nM
- IC50 [20]: 50 to 60 nM

- IC50 Ratio (A549/H1975) [2]: 1984
- IC50 ([9]; Homo sapiens, NCI-H1975): 0.005 µM
SMILES: CC(=O)O[C@H]1C(=O)[C@@]2(C)[C@H]([C@H](OC(=O)c3ccccc3)[C@]3(O)C[C@H](OC(=O)[C@H](O)[C@@H](NC(=O)c4ccccc4)c4ccccc4)C(C)=C1C3(C)C)[C@]1(OC(C)=O)CO[C@@H]1C[C@@H]2O [Paclitaxel, paclitaxel, reference compound]

- IC50 ([6]; Homo sapiens, A-375): 369 µM
SMILES: Cn1nnc2c(C(N)=O)ncn2c1=O [temozolomide, reference compound]
